Measurements as given in patent US9862682B2, “Functionalized pegylated cyanine compounds, pharmaceutical compositions, and methods of use thereof” (BroadPharm, priority 2016, dated 2018).

Experiment: Photophysical properties of cyanine dyes in dimethyl sulfoxide (DU 800 spectrophotometer)
Type: physicochemical
Details: for Excitation (nm): absorption
Description: The photophysical properties of a variety of cyanine dyes in dimethyl sulfoxide has been measured by the DU 800 spectrophotometer.

Row | Emission (nm) | Extinction Coefficient | Excitation (nm) | Compound
1 | 667 | 1.63 × 10^5 | 649 | COCCOCCOCCOCC[N+]1=C(/C=C/C=C/C=C2/N(CCOCCOCCOCCN)c3ccccc3C2(C)C)C(C)(C)c2ccccc21 [A2]
2 | 699 | 6.12 × 10^4 | 649 | C#CCOCCOCCOCCOCCOc1ccc2c(c1)C(C)(C)\C(=C/C=C\C=C/C1=[N+](C)c3ccc(OCCOCCOCCOCCOC)cc3C1(C)C)N2C [B1]
3 | 667 | 6.94 × 10^4 | 649 | CC1(C)C(/C=C/C=C/C=C2\N(CCOCCOCCOCCOCCC(=O)NCCN3C(=O)C=CC3=O)c3ccccc3C2(C)C)=[N+](CCOCCOCCOCCN=[N+]=[N-])c2ccccc21 [D3]
4 | 667 | 6.42 × 10^4 | 649 | COCCOCCOCCOCC[N+]1=C(/C=C/C=C/C=C2\N(CCOCCOCCOCCOCCC(=O)NCCC(=O)N3Cc4ccccc4C#Cc4ccccc43)c3ccccc3C2(C)C)C(C)(C)c2ccccc21 [D4]
5 | 682 | 7.11 × 10^4 | 661 | COCCOCCOCCOCC[n+]1c(/C=C/C=C/C=C2\Sc3ccccc3N2CCOCCOCCOCCC(=O)O)sc2ccccc21 [E1]
6 | 682 | 7.31 × 10^4 | 661 | O=C(O)CCOCCOCCOCCN1\C(=C/C=C\C=C\c2sc3ccccc3[n+]2CCOCCOCCOCCC(=O)O)Sc2ccccc21 [E2]
7 | 817 | 1.16 × 10^5 | 785 | CC1(C)C(/C=C/C2=C(Cl)C(=C/C=C3/N(CCOCCOCCOCCN=[N+]=[N-])c4ccccc4C3(C)C)/CCC2)=[N+](CCOCCOCCOCCN=[N+]=[N-])c2ccccc21 [F1]
8 | 685 | 7.65 × 10^4 | 661 | COCCOCCOCCOCC[N+]1=C(/C=C/C=C/C=C2\Sc3ccccc3N2CCOCCOCCOCCC(=O)O)C(C)(C)c2ccccc21 [G1]
9 | 671 | 4.23 × 10^4 | 652 | COCCOCCOCCOCCN1/C(=C/C=C/C=C/C2=[N+](CCOCCOCCOCCN=[N+]=[N-])c3ccccc3C2(C)C)Sc2ccccc21 [G2]
